From US10647713B2 (Nimbus Lakshmi, Inc., priority 2016, dated 2020)
pKd: −log10 of the molar value.

Molecular target: human TYK2 (JH2domain-pseudokinase) (Homo sapiens (Human), UniProt P29597)
Assay: TYK2 JH2 Domain Binding Assay (KINOMEscan, DiscoveRx)
Conditions: 11-point dilution, duplicate
Summary of the method: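 TYK2 JH2 (G556–D888)–NFkB DBD fusion, DNA-tagged, from HEK293 extracts (<0.1 nM) competed against immobilised biotinylated ligand for 1 h at room temperature, 0.9% DMSO. Bead-retained kinase quantified by qPCR; Kd from 11-point 3-fold series (top 30,000 nM, duplicate), Hill fit with slope −1.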

human TYK2 (JH2domain-pseudokinase), sequence (P29597 556-888): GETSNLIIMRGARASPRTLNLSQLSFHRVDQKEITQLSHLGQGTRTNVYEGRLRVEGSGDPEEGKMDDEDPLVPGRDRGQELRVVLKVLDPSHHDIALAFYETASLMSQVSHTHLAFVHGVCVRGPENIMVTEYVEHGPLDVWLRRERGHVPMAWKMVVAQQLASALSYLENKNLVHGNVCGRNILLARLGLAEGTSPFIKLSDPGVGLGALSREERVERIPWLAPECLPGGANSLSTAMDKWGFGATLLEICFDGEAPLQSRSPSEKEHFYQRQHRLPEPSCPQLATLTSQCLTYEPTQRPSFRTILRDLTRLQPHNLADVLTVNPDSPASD

Structure (SMILES) | pKd
Cn1ccc(-c2ccc(Nc3cc(NC(=O)[C@@H]4C[C@@H]4F)nc4[nH]c(C(F)F)nc34)c(S(C)(=O)=O)c2)n1 [I-210, (1S,2S)—N-(2-(difluoromethyl)-7-((4-(1-methyl-1H-pyrazol-3-yl)-2-(methylsulfonyl)phenyl)amino)-3H-imidazo[4,5-b]pyridin-5-yl)-2-fluorocyclopropane-1-carboxamide] | 9.30 to 10.00
Cc1nc2c(Nc3ccc(-c4ccn(C)n4)cc3S(C)(=O)=O)cc(NC(=O)[C@@H]3C[C@@H]3F)nc2[nH]1 [I-211, (1S,2S)-2-fluoro-N-(2-methyl-7-((4-(1-methyl-1H-pyrazol-3-yl)-2-(methylsulfonyl)phenyl)amino)-3H-imidazo[4,5-b]pyridin-5-yl)cyclopropane-1-carboxamide] | 9.30 to 10.00
Cn1cncc1-c1ccc(Nc2cc(NC(=O)C3CC3)nc3[nH]c(C(F)F)nc23)c(S(C)(=O)=O)c1 [I-214, N-(2-(difluoromethyl)-7-((4-(1-methyl-1H-imidazol-5-yl)-2-(methylsulfonyl)phenyl)amino)-3H-imidazo[4,5-b]pyridin-5-yl)cyclopropanecarboxamide] | > 10.00
Cc1nc2c(Nc3ccc(-c4cncn4C)cc3S(C)(=O)=O)cc(NC(=O)C3CC3)nc2[nH]1 [I-215, N-(2-methyl-7-((4-(1-methyl-1H-imidazol-5-yl)-2-(methylsulfonyl)phenyl)amino)-3H-imidazo[4,5-b]pyridin-5-yl)cyclopropanecarboxamide] | > 10.00
Cc1cc(-c2ccc(Nc3cc(NC(=O)C4CC4)nc4[nH]c(C(F)F)nc34)c(S(C)(=O)=O)c2)nn1C [I-216, N-(2-(difluoromethyl)-7-((4-(1,5-dimethyl-1H-pyrazol-3-yl)-2-(methylsulfonyl)phenyl)amino)-3H-imidazo[4,5-b]pyridin-5-yl)cyclopropanecarboxamide] | > 10.00
Cc1nc2c(Nc3ccc(-c4cc(C)n(C)n4)cc3S(C)(=O)=O)cc(NC(=O)C3CC3)nc2[nH]1 [I-217, N-(7-((4-(1,5-dimethyl-1H-pyrazol-3-yl)-2-(methylsulfonyl)phenyl)amino)-2-methyl-3H-imidazo[4,5-b]pyridin-5-yl)cyclopropanecarboxamide] | > 10.00
CN(c1cc([C@H]2CCCCO2)ccc1Nc1cc(NC(=O)C2CC2)nc2[nH]c(C(F)F)nc12)S(C)(=O)=O [I-218, (R)—N-(2-(difluoromethyl)-7-((2-(N-methylmethylsulfonamido)-4-(tetrahydro-2H-pyran-2-yl)phenyl)amino)-3H-imidazo[4,5-b]pyridin-5-yl)cyclopropanecarboxamide] | 9.30 to 10.00
CN(c1cc([C@@H]2CCCCO2)ccc1Nc1cc(NC(=O)C2CC2)nc2[nH]c(C(F)F)nc12)S(C)(=O)=O [I-219, (S)—N-(2-(difluoromethyl)-7-((2-(N-methylmethylsulfonamido)-4-(tetrahydro-2H-pyran-2-yl)phenyl)amino)-3H-imidazo[4,5-b]pyridin-5-yl)cyclopropanecarboxamide] | 9.30 to 10.00
CS(=O)(=O)c1cc(C2CCC2)ccc1Nc1cc(NC(=O)C2CC2)nc2[nH]c(C(F)F)nc12 [I-220, N-(7-((4-cyclobutyl-2-(methylsulfonyl)phenyl)amino)-2-(difluoromethyl)-3H-imidazo[4,5-b]pyridin-5-yl)cyclopropanecarboxamide] | 8.00 to 9.00
Cc1nc2c(Nc3ccc(C4CCC4)cc3S(C)(=O)=O)cc(NC(=O)C3CC3)nc2[nH]1 [I-221, N-(7-((4-cyclobutyl-2-(methylsulfonyl)phenyl)amino)-2-methyl-3H-imidazo[4,5-b]pyridin-5-yl)cyclopropanecarboxamide] | 9.00 to 9.30
COCc1ccc(Nc2cc(NC(=O)C3CC3)nc3[nH]c(C(F)F)nc23)c(S(C)(=O)=O)c1 [I-222, N-(2-(difluoromethyl)-7-((4-(methoxymethyl)-2-(methylsulfonyl)phenyl)amino)-3H-imidazo[4,5-b]pyridin-5-yl)cyclopropanecarboxamide] | 9.30 to 10.00
COCc1ccc(Nc2cc(NC(=O)C3CC3)nc3[nH]c(C)nc23)c(S(C)(=O)=O)c1 [I-223, N-(7-((4-(methoxymethyl)-2-(methylsulfonyl)phenyl)amino)-2-methyl-3H-imidazo[4,5-b]pyridin-5-yl)cyclopropanecarboxamide] | 9.30 to 10.00
Cc1nc2c(Nc3ccc(-c4ccn(C)n4)cc3S(C)(=O)=O)cc(NC(=O)[C@@H]3C[C@@H]3F)nc2[nH]1 [I-224, (1S,2S)-2-fluoro-N-(2-methyl-7-((4-(1-methyl-1H-pyrazol-3-yl)-2-(methylsulfonyl)phenyl)amino)-3H-imidazo[4,5-b]pyridin-5-yl)cyclopropane-1-carboxamide] | > 10.00
Cc1nc2c(Nc3ccc(-c4ccn(C)n4)cc3S(C)(=O)=O)cc(NC(=O)[C@H]3C[C@H]3F)nc2[nH]1 [I-225, (1R,2R)-2-fluoro-N-(2-methyl-7-((4-(1-methyl-1H-pyrazol-3-yl)-2-(methylsulfonyl)phenyl)amino)-3H-imidazo[4,5-b]pyridin-5-yl)cyclopropane-1-carboxamide] | 9.30 to 10.00
Cc1nc2c(Nc3ccc(C4CCOCC4)cc3S(C)(=O)=O)cc(NC(=O)C3CC3)nc2[nH]1 [I-226, N-(2-methyl-7-((2-(methylsulfonyl)-4-(tetrahydro-2H-pyran-4-yl)phenyl)amino)-3H-imidazo[4,5-b]pyridin-5-yl)cyclopropanecarboxamide] | 9.30 to 10.00
Cc1nc2c(Nc3ccc(-c4cn(C)cn4)cc3S(C)(=O)=O)cc(NC(=O)[C@H]3CC3(F)F)nc2[nH]1 [I-227, (R)-2,2-difluoro-N-(2-methyl-7-((4-(1-methyl-1H-imidazol-4-yl)-2-(methylsulfonyl)phenyl)amino)-3H-imidazo[4,5-b]pyridin-5-yl)cyclopropane-1-carboxamide] | 9.30 to 10.00
Cc1nc2c(Nc3ccc(-c4cn(C)cn4)cc3S(C)(=O)=O)cc(NC(=O)[C@@H]3CC3(F)F)nc2[nH]1 [I-228, (S)-2,2-difluoro-N-(2-methyl-7-((4-(1-methyl-1H-imidazol-4-yl)-2-(methylsulfonyl)phenyl)amino)-3H-imidazo[4,5-b]pyridin-5-yl)cyclopropane-1-carboxamide] | 8.00 to 9.00
CS(=O)(=O)N(c1ccccc1Nc1cc(Nc2cccc(C#N)n2)nc2[nH]c(C(F)F)nc12)C(F)F [I-229, N-(2-((5-((6-cyanopyridin-2-yl)amino)-2-(difluoromethyl)-3H-imidazo[4,5-b]pyridin-7-yl)amino)phenyl)-N-(difluoromethyl)methanesulfonamide] | 8.00 to 9.00
CN(c1cc(-c2cnn(C)c2)ccc1Nc1cc(NC(=O)[C@@H]2CC2(F)F)nc2[nH]c(C(F)F)nc12)S(C)(=O)=O [I-230, (S)—N-(2-(difluoromethyl)-7-((4-(1-methyl-1H-pyrazol-4-yl)-2-(N-methylmethylsulfonamido)phenyl)amino)-3H-imidazo[4,5-b]pyridin-5-yl)-2,2-difluorocyclopropane-1-carboxamide] | 9.00 to 9.30
CN(c1cc(-c2cnn(C)c2)ccc1Nc1cc(NC(=O)[C@H]2CC2(F)F)nc2[nH]c(C(F)F)nc12)S(C)(=O)=O [I-231, (R)—N-(2-(difluoromethyl)-7-((4-(1-methyl-1H-pyrazol-4-yl)-2-(N-methylmethylsulfonamido)phenyl)amino)-3H-imidazo[4,5-b]pyridin-5-yl)-2,2-difluorocyclopropane-1-carboxamide] | 8.00 to 9.00
